Laboratory results taken from US10265327B2, “V1A antagonists to treat phase shift sleep disorders” (Hoffmann-La Roche Inc., priority 2013, dated 2019).

Tested on: C57BL/6J mice
Experiment: Behavioural circadian responses (phase shift, period, alpha, locomotor activity) after single oral administration, release into constant darkness
Assay type: in vivo, mouse
Description: In all studies described below, male young-adult C57BL/6J mice (4 weeks old at the beginning of experiments) were used. Animals were exposed to a light-dark cycle (LD) 12:12 (lights on from 8 h to 20 h geographical time; light intensity at 200 lux; during dark period dim red light of 5 lux) in individual cages with food and water ad libitum and temperature (22±1° C.) and humidity (55%±5%) controlled. LD cycle was represented as zeitgeber times (ZT) where ZT0 represents the lights on and ZT12 lights off. When animals were exposed to constant darkness conditions (DD), circadian times (CT) were used as time point references, where CT12 corresponds to activity onset.
It was evaluated whether there is a phase window of sensitivity to the V1a receptor antagonist trans-8-chloro-5-methyl-1-(4-pyridin-2-yloxycyclohexyl)-4,6-dihydro-[1,2,4]triazolo[4,3-a][1,4]benzodiazepine (example 1). A group of animals was treated at 2 temporal points (one during the day and one at night). Animals were exposed to LD cycle conditions (at least for 10 days) to obtain a baseline of the rhythm of locomotor activity. 4 groups were selected: (group 1) Sham manipulations, animals into which the cannula was introduced in the oral cavity without any solution delivery; (group 2) vehicle, and […] administration of the V1a receptor antagonist trans-8-chloro-5-methyl-1-(4-pyridin-2-yloxycyclohexyl)-4,6-dihydro-[1,2,4]triazolo[4,3-a][1,4]benzodiazepine (doses of 10 mg/kg and 30 mg/kg). Administrations were performed (orally) at ZT/CT12 (lights off/activity onset; sham, n=5; vehicle n=5; 10 mg/kg n=5; and 30 mg/kg n=5). After the first manipulation at ZT/CT12, animals were immediately exposed to DD conditions and remained at least for 10 days more for behavioural analysis, and then re-entrained to a 12-12 LD cycle, for a minimum of 10 days, to be re-exposed to the second experimental manipulation at ZT/CT0 (lights on/activity offset; sham, n=3; vehicle n=3; 10 mg/kg n=5; and 30 mg/kg n=5).
A new group of animals was treated at another 2 temporal points different from the previous experiment; ZT/CT6 (6 h after lights on/mid rest period; sham, n=3; vehicle n=4; and 30 mg/kg n=5) and ZT/CT18 (6 h after lights off/mid activity period; sham, n=3; vehicle n=4; and 30 mg/kg n=5). For this experiment (time points ZT/CT6 and ZT/CT18), trans-8-chloro-5-methyl-1-(4-pyridin-2-yloxycyclohexyl)-4,6-dihydro-[1,2,4]triazolo[4,3-a][1,4]benzodiazepine was administrated only at the 30 mg/kg dose. Thus, 3 groups were selected: (Group 1) Sham manipulations, (Group 2) vehicle administrations and (Group 3) trans-8-chloro-5-methyl-1-(4-pyridin-2-yloxycyclohexyl)-4,6-dihydro-[1,2,4]triazolo[4,3-a][1,4]benzodiazepine (30 mg/kg). After manipulations, animals were immediately exposed to DD conditions and remained at least for 10 days more for behavioural analysis, and then re-entrained to a 12-12 LD cycle for a minimum of 10 days.
The locomotor activity rhythms were measured using infra-red detectors on the top of the cages and/or running wheels.
Phase shifts: Phase shifts were measured by fitting two regression lines to the onsets of locomotor activity for 10 days before and 10 days after the manipulation (ClockLab; Actimetrics, Evanston, Ill., USA). A computer algorithm was used to identify the onset of the main period of daily locomotor activity (ClockLab). The data collected on the day following the manipulation (sham, vehicle or drug administration) was excluded from the line fits to ensure that the circadian phase was in steady state. Phase shift was defined as the difference (in hours) between the pre-stimulus line and the post-stimulus line. The magnitude of the phase shifts was fitted by linear regression to the onsets, considering 10 cycles before (LD) and 10 cycles after compound administration when animals were released in constant darkness (DD; Aschoff Type II procedure to evaluate phase shifts; Mrosovsky, 1996b). […]

## CN1Cc2cc(Cl)ccc2-n2c(nnc2[C@H]2CC[C@H](Oc3ccccn3)CC2)C1 [Example 1, trans-8-chloro-5-methyl-1-(4-pyridin-2-yloxycyclohexyl)-4,6-dihydro-[1,2,4]triazolo[4,3-a][1,4]benzodiazepine]
10 mg/kg or 30 mg/kg oral, ZT/CT12 and ZT/CT0
  locomotor activity change after administration: No significant locomotor activity change
10 mg/kg or 30 mg/kg oral, ZT/CT12 and ZT/CT0, constant darkness
  endogenous period of locomotor activity: no changes
30 mg/kg oral, ZT/CT18 and ZT/CT6
  endogenous period of locomotion: not significantly different between groups
30 mg/kg oral, ZT/CT18 or ZT/CT6
  alpha (duration of active period), difference between groups: no differences between groups were observed
Single administration 30 mg/kg oral, at ZT/CT18 and ZT/CT6
  behavioural phase shifts (circadian phase): no significant effect on the circadian phase
Single oral administration, 10 mg/kg or 30 mg/kg, at ZT/CT12 and ZT/CT0
  behavioural phase-shifts (circadian phase): no effect on the circadian phase
Treated at ZT/CT0, 10 and 30 mg/kg oral, effect vs groups not statistically significant
  alpha increase (pre vs. post): ~2 h
Treated at ZT/CT12, 10 and 30 mg/kg oral
  alpha (duration of active period), difference between groups: no differences between groups were observed
